{
  "source": "patent US6740335B1",
  "about": "“Liposomal camptothecin formulations” (priority 1997, dated 2004)",
  "key": {"BT-20 (Breast)": {"system": "BT-20 (Breast)", "assay": "3H-thymidine incorporation cytotoxicity assay, BT-20", "format": "cell-based, human", "conditions": "Homo sapiens, BT-20, 42 h; read-out: Median IC50", "experimental": "(§1) In vitro efficacy screening has been performed using GI147211 and liposomal formulations of GI147211. […] Standard tumor cell-based cytototoxicity assays assessing ^3H-thymidine incorporation were performed.\n(§2) Tumor cells were seeded into 96-well tissue culture plates (1×10^4 cells/well)≡4 h prior to experimentation. […] Positive and negative (Tris treated) control groups were included on each assay plate. Tumor cells were then labeled with 0.25 μCi of [methyl-^3H] thymidine and incubated for 42 h under tissue culture conditions (37° C., 5% CO2, 100% relative humidity), except for C6, U251, A673 and B16-F1 cells which were incubated for 24 h. Cells were then lysed, harvested onto glass-fiber filters and unincorporated [methyl-^3H] thymidine removed by filter washing. Filters were processed for scintillation counting and cpm-^3H/well determined. […] Data are presented from multiple sets of experimentation, involving multiple liposomal formulations of GI147211."}, "LOX (melanoma)": {"system": "LOX (melanoma)", "assay": "3H-thymidine incorporation cytotoxicity assay, LOX", "format": "cell-based, human", "conditions": "Homo sapiens, 42 h, read-out: Median IC50", "experimental": "as §1, §2"}, "ES-2 (ovarian carcinoma)": {"system": "ES-2 (ovarian carcinoma)", "assay": "3H-thymidine incorporation cytotoxicity assay, ES-2", "format": "cell-based, human", "conditions": "Homo sapiens; ES-2, 42 h; read-out: Median IC50", "experimental": "as §1, §2"}, "[1]": {"assay": "Plasma pharmacokinetics in mice, routes of administration", "format": "in vivo", "conditions": "for Vd: read-out: Vss", "procedure": "Pharmacokinetic studies were carried out on various liposomal formulations of GI147211 in rats and mice by IV bolus administration. Plasma samples were precipitated with acetonitrile and the supematant for each sample was analyzed by reverse phase HPLC using isocratic elution and monitoring fluorescence. […] Concentration values were determined for unknown samples and quality control samples based on interpolation using a linear fit of the standard samples. In each study the average plasma concentration at each time point was calculated and utilized in the pharmacokinetic analysis. Noncompartmental analysis were carried out using WinNonlin™ (Standard Edition, version 1.5 ©, Scientific Consulting, Inc.) and the following parameters were calculated: the maximum concentration extrapolated at zero time (Cmax), the area under the curve from zero to infinite time (AUC total), the terminal phase half life (t½), the clearance rate (C1), and the volume of distribution at steady state (Vss).\nAnimals received a 1 mg/kg dose by intravenous (I.V.) intraperatoneal (I.P.) or subcutaneous administration and plasma samples were collected over 24 hours."}, "[2]": {"system": "KBV Head/Neck Tumor MDR +", "format": "in vivo", "experimental": "In all the studies performed, subcutaneous tumors implanted on the anterior flank of nude mice were allowed to grow to an established size of 200+/−50 mm^3 prior to dosing drugs.\nThe xenograft models included the HT29 and SW48 human colon tumor lines, and the KB and KBV head-neck tumors. Drugs were dosed at either 6 or 9 mg/kg intravenously, on a weekly schedule for 3 consecutive weeks. In the SW48 xenograft study, the animals received a total of two cycles of therapy (6 injections), with a 10 day recovery period separating the two therapeutic courses. In the HT29 xenograft study a 12 and 14 mg/kg dose group was added."}, "U251 (Glioblastoma)": {"system": "U251 (Glioblastoma)", "assay": "3H-thymidine incorporation cytotoxicity assay, U251", "format": "cell-based, human", "conditions": "Homo sapiens, U-251; U251, 24 h; read-out: Median IC50", "experimental": "as §1, §2"}, "[3]": {"conditions": "mouse, plasma, iv, 1 mg/kg, 1 mg/kg IV bolus"}, "[4]": {"conditions": "mouse, plasma, iv, 1 mg/kg, I.V."}},
  "note": "Where a name gives a salt, the structure may show the parent alone. Read-outs that look alike come from different tables or passages of the source.",
  "data": [
    {"smiles": "CCC1(O)C(=O)OCc2c1cc1n(c2=O)Cc2c-1nc1cc3c(cc1c2CN1CCN(C)CC1)OCCO3", "note": "(stereo in doubt) [GI147211, 7-(4-methylpiperazinomethylene)-10,11-ethylenedioxy-20(S)-camptothecin dihydrochloride]", "values": [
      {"measurement": "IC50", "setting": "BT-20 (Breast)", "result": 0.0866, "unit": "ng/mL"},
      {"measurement": "IC50", "setting": "LOX (melanoma)", "result": 1.41, "unit": "ng/mL"},
      {"measurement": "IC50", "setting": "ES-2 (ovarian carcinoma)", "result": 0.489, "unit": "ng/mL"},
      {"measurement": "AUC (total)", "setting": "[1]; 1 mg/kg IV bolus", "result": 140, "unit": "ng·h/mL"},
      {"measurement": "AUC (total)", "setting": "[1]; 1 mg/kg, I.P.", "result": 47, "unit": "ng·h/mL"},
      {"measurement": "AUC (total)", "setting": "[1]; 1 mg/kg, I.V.", "result": 140, "unit": "ng·h/mL"},
      {"measurement": "Cmax", "setting": "[1]; 1 mg/kg, I.V.", "result": 80, "unit": "ng/mL"},
      {"measurement": "AUC (total)", "setting": "[1]; 1 mg/kg, Sub. Q", "result": 55, "unit": "ng·h/mL"},
      {"measurement": "Cmax", "setting": "[1]; mouse, plasma, 1 mg/kg IV bolus, read-out: Cmax", "result": 80, "unit": "ng/mL"},
      {"measurement": "half-life", "setting": "[1]; mouse, plasma, 1 mg/kg IV bolus, read-out: t½ (converted)", "result": 113, "unit": "min"},
      {"measurement": "Tmax", "setting": "[1]; mouse, plasma, ip, 1 mg/kg, I.P.", "result": 15, "unit": "min"},
      {"measurement": "Cmax", "setting": "[1]; mouse, plasma, ip, 1 mg/kg, I.P., read-out: Cmax", "result": 56, "unit": "ng/mL"},
      {"measurement": "clearance", "setting": "[1]; [3]", "result": 122, "unit": "mL/min/kg"},
      {"measurement": "Vd", "setting": "[1]; [3]", "result": 17.6, "unit": "L/kg"},
      {"measurement": "Tmax", "setting": "[1]; [4]", "result": 0, "unit": "min"},
      {"measurement": "clearance", "setting": "[1]; [4]", "result": 122, "unit": "mL/min/kg"},
      {"measurement": "Vd", "setting": "[1]; [4]", "result": 17.6, "unit": "L/kg"},
      {"measurement": "Tmax", "setting": "[1]; mouse, plasma, subcutaneous, 1 mg/kg, Sub. Q", "result": 15, "unit": "min"},
      {"measurement": "Cmax", "setting": "[1]; mouse, plasma, subcutaneous, 1 mg/kg, Sub. Q, read-out: Cmax", "result": 42, "unit": "ng/mL"},
      {"measurement": "Log 10 Cell Kill", "setting": "[2]; KBV, 9 mg/kg iv, QD7 × 3", "result": 0.125},
      {"measurement": "T-C (time to reach 1,000% Tumor Volume, treated vs control)", "setting": "[2]; KBV, 9 mg/kg iv, QD7 × 3", "result": 2, "unit": "days"},
      {"measurement": "% TGI", "setting": "[2]; KBV, 9 mg/kg iv, QD7 × 3, day 18", "result": 11, "unit": "%"},
      {"measurement": "activity in the MDR+ tumor model KBV", "setting": "[2]; identical dose and schedule", "result": "essentially inactive"},
      {"measurement": "IC50", "setting": "U251 (Glioblastoma)", "result": 3.11, "unit": "ng/mL"}
    ]}
  ]
}
